From patent US10703764B2, “Benzopiperazine compositions as BET bromodomain inhibitors” (FORMA Therapeutics, Inc., priority 2013, dated 2020)
pIC50: −log10 of the molar value.

What was measured:
[1] = molecular target: T1, BRD4 BD1 (Homo sapiens, UniProt O60885); assay: AlphaScreen binding assay, BRD4 Bromodomain 1
T1 construct: made in house
How it was run: (§1)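 An AlphaScreen competition format was used with His-BRD4 BD1 or BD2 and biotin-H4 K5/8/12/16-acetyl peptide, each at matched final levels of 50 nM (BD1) or 100 nM (BD2). Incubation in HEPES/NaCl buffer with 0.1% BSA and 0.01% Triton X-100 ran ≥1 h before IC50 determination.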

[2] = molecular target: T2, BRD4 BD2 (Homo sapiens, UniProt O60885); assay: AlphaScreen binding assay, BRD4 Bromodomain 2
T2 construct: made in house
How it was run: as §1

[3] = test system: MV4-11 cells; assay: Oncology cell growth assay (3-day proliferation, CellTiter-Glo); format: cell-based; conditions: Homo sapiens, MV4-11, 72 h, AML cell line MV4-11, 72 hours, compounds grouped by IC50 range, read-out: MV4-11 IC50 (inhibition of proliferation, gIC50)
How it was run: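 MV4-11 AML cells (RPMI 1640, 10% FBS) plated at 3000 cells/well and exposed 72 h to compound at final 10 to 0.0045 μM (3-fold series). Viability read by CellTiter-Glo luminescence; gIC50 from four-parameter logistic fit between DMSO control and no-cell background.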

Row | pIC50 [1] | pIC50 [2] | pIC50 [3] | Compound
1 | 6.00 to 7.00 | 6.30 to 7.30 | 6.30 to 7.00 | CC(=O)N1c2ccc(-c3ccc(S(=O)(=O)C4CC4)cc3)cc2N(C(=O)OC2CCOCC2)C[C@@H]1C [Example I-1216]
2 | 6.00 to 7.00 | > 7.30 | > 7.00 | CC(=O)N1c2ccc(-c3ccc(S(=O)(=O)NCCO)cc3)cc2N(C(=O)OC2CCCCC2)C[C@@H]1C [Example I-1217]
3 | 6.00 to 7.00 | 6.30 to 7.30 | 6.30 to 7.00 | CC(=O)N1c2ccc(-c3ccc(S(=O)(=O)NCCO)cc3)cc2N(C(=O)OC2CCOCC2)C[C@@H]1C [Example I-1218]
4 | 6.00 to 7.00 | > 7.30 | > 7.00 | CC(=O)N1c2ccc(-c3cccc(S(N)(=O)=O)c3)cc2N(C(=O)OC2CCCCC2)C[C@@H]1C [Example I-1219]
5 | 6.00 to 7.00 | 6.30 to 7.30 | 6.30 to 7.00 | CC(=O)N1c2ccc(-c3cccc(S(N)(=O)=O)c3)cc2N(C(=O)OC2CCOCC2)C[C@@H]1C [Example I-1220]
6 | 6.00 to 7.00 | 6.30 to 7.30 | 6.30 to 7.00 | CC(=O)N1c2ccc(-c3cccc(NS(C)(=O)=O)c3)cc2N(C(=O)OC2CCCCC2)C[C@@H]1C [Example I-1221]
7 | 6.00 to 7.00 | 6.30 to 7.30 | 6.30 to 7.00 | CC(=O)N1c2ccc(-c3cccc(NS(C)(=O)=O)c3)cc2N(C(=O)OC2CCOCC2)C[C@@H]1C [Example I-1222]
8 | 6.00 to 7.00 | 6.30 to 7.30 | 6.30 to 7.00 | CC(=O)N1c2ccc(-c3cccc(S(=O)(=O)N(C)C)c3)cc2N(C(=O)OC2CCCCC2)C[C@@H]1C [Example I-1223]
9 | 6.00 to 7.00 | 6.30 to 7.30 | 6.30 to 7.00 | CC(=O)N1c2ccc(-c3cccc(S(=O)(=O)N(C)C)c3)cc2N(C(=O)OC2CCOCC2)C[C@@H]1C [Example I-1224]
10 | 6.00 to 7.00 | 6.30 to 7.30 | 6.30 to 7.00 | CC(=O)N1c2ccc(-c3cccc(S(C)(=O)=O)c3)cc2N(C(=O)OC2CCCCC2)C[C@@H]1C [Example I-1225]
11 | 6.00 to 7.00 | 6.30 to 7.30 | < 6.30 | CC(=O)N1c2ccc(-c3cccc(S(C)(=O)=O)c3)cc2N(C(=O)OC2CCOCC2)C[C@@H]1C [Example I-1226]
12 | 6.00 to 7.00 | 6.30 to 7.30 | 6.30 to 7.00 | CCS(=O)(=O)Nc1cccc(-c2ccc3c(c2)N(C(=O)OC2CCCCC2)C[C@H](C)N3C(C)=O)c1 [Example I-1227]
13 | 6.00 to 7.00 | 6.30 to 7.30 | 6.30 to 7.00 | CCS(=O)(=O)Nc1cccc(-c2ccc3c(c2)N(C(=O)OC2CCOCC2)C[C@H](C)N3C(C)=O)c1 [Example I-1228]
14 | 6.00 to 7.00 | 6.30 to 7.30 | 6.30 to 7.00 | CC(=O)N1c2ccc(-c3ccc(N4CCOCC4)cc3)cc2N(C(=O)OC2CCCCC2)C[C@@H]1C [Example I-1229]
15 | 6.00 to 7.00 | 6.30 to 7.30 | 6.30 to 7.00 | CC(=O)N1c2ccc(-c3ccc(N4CCOCC4)cc3)cc2N(C(=O)OC2CCOCC2)C[C@@H]1C [Example I-1230]
16 | 6.00 to 7.00 | 6.30 to 7.30 | 6.30 to 7.00 | CC(=O)N1c2ccc(-c3ccc(S(=O)(=O)C(C)C)cc3)cc2N(C(=O)OC2CCCCC2)C[C@@H]1C [Example I-1231]
17 | 6.00 to 7.00 | 6.30 to 7.30 | 6.30 to 7.00 | CC(=O)N1c2ccc(-c3ccc(S(=O)(=O)C(C)C)cc3)cc2N(C(=O)OC2CCOCC2)C[C@@H]1C [Example I-1232]
18 | 6.00 to 7.00 | 6.30 to 7.30 | 6.30 to 7.00 | CC(=O)N1c2ccc(-c3ccc(S(N)(=O)=O)cc3)cc2N(C(=O)OC2CCCCC2)C[C@@H]1C [Example I-1233]
19 | 6.00 to 7.00 | 6.30 to 7.30 | 6.30 to 7.00 | CC(=O)N1c2ccc(-c3ccc(S(N)(=O)=O)cc3)cc2N(C(=O)OC2CCOCC2)C[C@@H]1C [Example I-1234]
20 | 6.00 to 7.00 | 6.30 to 7.30 | 6.30 to 7.00 | CCCS(=O)(=O)c1ccc(-c2ccc3c(c2)N(C(=O)OC2CCCCC2)C[C@H](C)N3C(C)=O)cc1 [Example I-1235]
